Measurements reported in US20260184708A1, “PYRIDAZINONES AND METHODS OF USE THEREOF” (GFB (ABC), LLC, priority 2017, published 2026).
pIC50: −log10 of the molar value. Read-outs that look alike come from different tables or passages of the source.

Biological target: T1, TRPC5 (Homo sapiens, UniProt Q9UL62)
T1 construct: expressed in transfected cells; host or cells: HEK 293
T1 sequence (Q9UL62 1-973): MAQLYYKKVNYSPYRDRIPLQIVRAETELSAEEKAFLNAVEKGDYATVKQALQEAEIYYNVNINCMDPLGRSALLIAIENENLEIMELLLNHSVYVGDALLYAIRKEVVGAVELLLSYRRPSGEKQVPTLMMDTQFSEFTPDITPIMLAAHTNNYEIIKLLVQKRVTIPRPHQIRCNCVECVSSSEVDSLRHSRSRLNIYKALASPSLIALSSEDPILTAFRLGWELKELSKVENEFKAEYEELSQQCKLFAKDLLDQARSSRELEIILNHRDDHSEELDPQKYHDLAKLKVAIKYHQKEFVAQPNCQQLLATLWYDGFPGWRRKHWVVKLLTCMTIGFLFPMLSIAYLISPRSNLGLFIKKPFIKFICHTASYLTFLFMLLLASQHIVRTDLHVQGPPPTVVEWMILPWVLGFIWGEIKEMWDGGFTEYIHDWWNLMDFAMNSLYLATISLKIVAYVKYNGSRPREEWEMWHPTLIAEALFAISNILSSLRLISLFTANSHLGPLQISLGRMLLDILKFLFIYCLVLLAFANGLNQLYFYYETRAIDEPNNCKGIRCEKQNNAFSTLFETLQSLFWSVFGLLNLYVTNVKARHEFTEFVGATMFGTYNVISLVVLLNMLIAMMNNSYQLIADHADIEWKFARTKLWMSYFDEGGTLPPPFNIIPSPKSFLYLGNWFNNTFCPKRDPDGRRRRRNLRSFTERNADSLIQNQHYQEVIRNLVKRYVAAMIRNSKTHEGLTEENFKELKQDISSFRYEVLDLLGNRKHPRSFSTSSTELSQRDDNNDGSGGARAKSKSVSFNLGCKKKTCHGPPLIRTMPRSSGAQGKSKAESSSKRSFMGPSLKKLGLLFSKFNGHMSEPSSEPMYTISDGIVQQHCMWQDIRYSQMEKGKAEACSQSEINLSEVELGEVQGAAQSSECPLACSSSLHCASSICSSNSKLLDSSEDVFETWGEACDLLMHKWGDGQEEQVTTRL
Experiment: TRPC5 automated patch clamp assay (Qpatch), current block after rosiglitazone stimulation
Type: cell-based
Settings: HEK293 cells overexpressing TRPC5
Experimental: HEK 293 cells expressing human TRPC5 were harvested, re-suspended in serum free medium, and added to the automated platform and used within 2-3 hours. Internal and external physiological solutions were freshly prepared prior to the assay. The external solution contained: 145 mM NaCl, 4 mM KCl, 2 mM CaCl2), 1 mM MgCl2, 10 mM HEPES, 10 mM glucose, pH 7.4 with NaOH and 300 mOsm/L. The internal solution contained 120 mM L-aspartic acid, 120 mM CsOH·H2O, 20 mM CsCl, 2 mM MgCl2, 8.8 mM CaCl2), 10 mM EGTA, 10 mM HEPES, 10 mM Glucose, 0.1 mM GTP and 2 mM Na2ATP; pH 7.2 with CsOH and 290 mOsm/L. The free internal Ca2+ concentration was buffered to 1 μM.
The automated electrophysiological platform QPatch 16 from Sophion (Denmark) was used to carry out the compounds profiling. The series resistance and quality of seals were continuously monitored during the experiments. Data was analyzed using Sophion QPatch assay software 5.6 (Odense). IC50 values were calculated using a least squares regression algorithm (Hill equation).
To monitor the ion currents, a voltage ramp from −100 mV to +100 mV, over 300 ms, was applied every 10 seconds, from a holding potential of −60 mV.
After recording for a minimum of 60 seconds control period, Rosiglitazone (30 uM), was applied to activate the channel.

[1] = Table 5, rosiglitazone stimulation, 80 mV, read-out: TRPC5_QP_ XC50_80
[2] = Table 5, rosiglitazone stimulation, 100 mV, read-out: TRPC5_QP_ XC50_100

pIC50 [1] | pIC50 [2] | pIC50 (Table 6, read-out: TRPC5-QPatch IC50) | pIC50 (rosiglitazone stimulation, 80 mV, read-out: TRPC5_QP XC50_80) | pIC50 (rosiglitazone stimulation, 100 mV, read-out: TRPC5_QP XC50_100) | SMILES
3.30 to 5.00 | 3.30 to 5.00 |  |  |  | O=C1N(Cc2ccccc2C(F)(F)F)CCC12CCN(c1cn[nH]c(=O)c1Br)CC2
3.30 to 5.00 | 3.30 to 5.00 |  |  |  | Cc1cc(F)ccc1CN1CCN(c2c(Br)n[nH]c(=O)c2Cl)CC1
5.00 to 5.30 | 5.00 to 5.30 |  |  |  | O=C1CN(c2cn[nH]c(=O)c2Cl)CCN1CC1CCC(F)(F)CC1
5.00 to 5.30 | 5.00 to 5.30 |  |  |  | Cc1n[nH]c(=O)c(Cl)c1N1CCN(Cc2ccc(F)cc2C(F)(F)F)C(=O)C1
3.30 to 5.00 | 3.30 to 5.00 |  |  |  | O=C1CN(c2c(Cl)cn[nH]c2=O)CCN1Cc1ccc(F)cc1F
3.30 to 5.00 | 3.30 to 5.00 |  |  |  | Cc1ncccc1CN1CCN(c2cn[nH]c(=O)c2Cl)CC1=O
5.00 to 5.30 | 5.00 to 5.30 |  |  |  | O=C1CN(c2cn[nH]c(=O)c2Cl)CCN1Cc1ccc(F)cc1
3.30 to 5.00 | 3.30 to 5.00 |  |  |  | O=C1CN(c2c(Cl)cn[nH]c2=O)CCN1Cc1ccccc1OC(F)(F)F
3.30 to 5.00 | 3.30 to 5.00 |  |  |  | Cc1cc(F)ccc1CN1CCN(c2ccn[nH]c2=O)CC1
3.30 to 5.00 | 3.30 to 5.00 |  |  |  | CC[C@@H]1CN(Cc2ccc(F)cc2C)CCN1c1cn[nH]c(=O)c1Cl
3.30 to 5.00 | 3.30 to 5.00 |  |  |  | CCCOc1n[nH]c(=O)cc1N1CCN(Cc2ccc(F)cc2C)CC1
5.00 to 5.30 | 5.00 to 5.30 |  |  |  | Cc1ccc(CN2CCN(c3cn[nH]c(=O)c3Cl)CC2=O)cc1
5.30 to 6.00 | 5.30 to 6.00 |  |  |  | Cc1cc(F)ccc1CN1CCN(c2cc(=O)[nH]nc2-c2ccccc2)CC1
5.30 to 6.00 | 5.30 to 6.00 |  |  |  | CC(c1ccccc1)n1cnc2c1CCN(c1cn[nH]c(=O)c1Cl)C2 (stereo not shown)
5.00 to 5.30 | 5.00 to 5.30 |  |  |  | O=C1CN(c2cn[nH]c(=O)c2Cl)CCN1Cc1cccnc1Oc1ccccc1
5.30 to 6.00 | 5.30 to 6.00 |  |  |  | CC[C@@H](c1ccccc1)N1CCN(c2cn[nH]c(=O)c2Cl)CC1

pIC50 [1] | pIC50 [2] | pIC50 (Table 6, read-out: TRPC5-QPatch IC50) | pIC50 (rosiglitazone stimulation, 80 mV, read-out: TRPC5_QP XC50_80) | pIC50 (rosiglitazone stimulation, 100 mV, read-out: TRPC5_QP XC50_100) | SMILES
3.30 to 5.00 | 3.30 to 5.00 |  |  |  | C=Cc1n[nH]c(=O)c(Cl)c1N1CCN(Cc2ccc(F)cc2C)CC1
3.30 to 5.00 | 3.30 to 5.00 |  |  |  | Cc1cc(F)ccc1CN1CCN(c2cc(=O)[nH]nc2C)CC1=O
5.30 to 6.00 | 5.30 to 6.00 |  |  |  | O=C1CN(c2cn[nH]c(=O)c2Cl)CCN1C1(c2ccccc2)CC1
5.30 to 6.00 | 5.30 to 6.00 |  |  |  | CC[C@H](c1ccccc1)N1CCN(c2cn[nH]c(=O)c2Cl)CC1
3.30 to 5.00 | 3.30 to 5.00 |  |  |  | Cc1ccccc1Cn1cnc2c1CN(c1cn[nH]c(=O)c1Cl)CC2
3.30 to 5.00 | 3.30 to 5.00 |  |  |  | O=c1[nH]ncc(N2CCc3ncn(Cc4ccccc4)c3C2)c1Cl
5.00 to 5.30 | 5.00 to 5.30 |  |  |  | CS(=O)(=O)c1ccccc1CN1CCN(c2cn[nH]c(=O)c2Cl)CC1
5.30 to 6.00 | 5.30 to 6.00 |  |  |  | CCc1cn[nH]c(=O)c1N1CCN(Cc2ccc(F)cc2C)CC1
5.30 to 6.00 | 5.30 to 6.00 |  |  |  | COc1cn[nH]c(=O)c1N1CCN(Cc2ccc(F)cc2C)CC1
5.30 to 6.00 | 5.30 to 6.00 |  |  |  | Cc1cc(F)ccc1CN1CCN(c2c(C)cn[nH]c2=O)CC1
3.30 to 5.00 | 3.30 to 5.00 |  |  |  | CS(=O)(=O)c1ccc(CN2CCN(c3cn[nH]c(=O)c3Cl)CC2=O)cc1
5.00 to 5.30 | 5.00 to 5.30 |  |  |  | O=c1[nH]ncc(N2CCN(Cc3cccnc3Oc3ccccc3)CC2)c1Cl
3.30 to 5.00 | 3.30 to 5.00 |  |  |  | O=C1CN(c2cn[nH]c(=O)c2Cl)CCN1Cc1ccc(C2CC2)cc1
 |  | 5.30 to 6.00 |  |  | O=c1[nH]ncc(N2CCc3c(ncn3-c3cccnc3C(F)(F)F)C2)c1Cl
 |  |  | 6.00 to 11.00 | 6.00 to 11.00 | Cc1ccccc1CN1CCN(c2cn[nH]c(=O)c2Cl)CC1=O [drawing 631]
